Experiments:
[1] = molecular target: T1, cathepsin B (Mus musculus, UniProt P10605); assay: Cytosolic cathepsin B activity in microglia cells during low nutrient stress; type: cell-based; details: 2 μM; 0% FBS for 24 hours; substrate Z-Nle-Lys-Arg-AMC
T1 construct: from tissue; host or cells: mouse ipsilateral brain cortex (homogenate and cytosol) after controlled cortical impact TBI
Experimental: (§1) Regulation of cathepsin B activity during cell death induced by low nutrient stress in microglia cells. […] Microglia cells (mouse BV2 cells) were treated with low nutrient culture media (0% fetal bovine serum, FBS) compared to a normal nutrient condition (10% FSB) for 24 hours. The low nutrient stress condition induced cell death monitored by LDH (lactate dehydrogenase) released into the culture media. The stress-induced increase in cell death was reduced by the inhibitor Z-Arg-Lys-AOMK (2 μM), a selective inhibitor of cathepsin B. (n=6, mean+sem, *p<0.05, student's t-test). […] Cathepsin B activity was elevated in cytosol isolated from microglia cells after treatment with low nutrient stress (0% FBS) for 24 hours. Cathepsin B activity was measured with the specific substrate Z-Nle-Lys-Arg-AMC ([…] in assay). Furthermore, the increase in cytosolic cathepsin B activity was blocked by the cathepsin B inhibitor Z-Arg-Lys-AOMK (2 μM) during low nutrient stress. (n=6, mean+sem, *p<0.05, student's t-test).

[2] = molecular target: T1, cathepsin B; assay: Cathepsin B activity in ipsilateral brain cortex of TBI mice; type: in vivo; details: 20 mg/kg, ip; day 6 after TBI
Experimental: (§2) FIGS. 13a-13e show traumatic brain injury (TBI) in mice results in elevated brain cathepsin B activity, involved in motor deficit. […] Mice were subjected to the controlled cortical impact (CCI) model of TBI. Motor function was assessed by the rotarod assay on days 1, 3, and 7 after TBI. Control sham mice received surgery of the scalp but no TBI. Rotarod data are shown as mean+SD (n=5/group, mean+sem, *p<0.05, student's t-test). […] The TBI injury was conducted on the ipsilateral side of the brain cortex, shown by the tissue lesion at the site of TBI impact. […] Cathepsin B activity in homogenate of mouse brain cortex was measured with the Z-Nle-Lys-Arg-AMC substrate on day 6 after TBI. These TBI mice were treated with vehicle or Z-Arg-Lys-AOMK inhibitor (20 mg/kg, ip). (n=6 per group for vehicle-treated, and n=4 per group for treatment with inhibitor Z-Arg-Lys-AOMK; mean+sem, p<0.05, student's t-test).
Cytosol from brain homogenate (obtained on day 6 after TBI) was isolated by differential density centrifugation. Cathepsin B in the cytosol from brain cortex was measured by the substrate Z-Nle-Lys-Arg-AMC substrate. (n=6 per group for vehicle treated, and n=4 per group for treatment with inhibitor Z-Arg-Lys-AOMK: mean+sem, p<0.05, student's t-test).

[3] = test system: mouse BV2 microglia cells; assay: Cell death (LDH release) induced by low nutrient stress in microglia cells; type: cell-based; details: 2 μM; 0% FBS for 24 hours
Experimental: as §1

[4] = test system: TBI mice; assay: Rotarod motor function in controlled cortical impact (CCI) model of TBI; type: in vivo, mouse; details: 20 mg/kg, ip, one day before TBI, day of TBI and day 1 after; measured day 1 after TBI
Experimental: as §2
TBI mice were treated with Z-Arg-Lys-AOMK inhibitor (20 mg/kg, ip) one day before TBI, on the day of TBI, and on day 1 after TBI. Motor function was measured on day 1 after TBI. (n=6 per group for vehicle-treated, and n=4 per group for treatment with inhibitor Z-Arg-Lys-AOMK; mean+sem, p<0.05, student's t-test).

T1 sequence (P10605 80-333): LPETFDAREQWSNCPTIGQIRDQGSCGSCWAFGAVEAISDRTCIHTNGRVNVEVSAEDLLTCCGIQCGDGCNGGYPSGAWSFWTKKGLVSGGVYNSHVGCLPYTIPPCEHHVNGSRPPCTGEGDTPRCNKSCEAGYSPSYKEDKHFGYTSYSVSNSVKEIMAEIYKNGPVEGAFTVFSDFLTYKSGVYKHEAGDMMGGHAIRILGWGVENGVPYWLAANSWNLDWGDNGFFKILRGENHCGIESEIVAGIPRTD

increase in cytosolic cathepsin B activity [1]: blocked
cathepsin B activity in brain cortex cytosol [2]: inhibition of cathepsin B activity
cathepsin B activity in brain cortex homogenate [2]: inhibition of cathepsin B activity
Substance: Z-Arg-Lys-AOMK
stress-induced increase in cell death (LDH released into the culture media) [3]: reduced
motor deficit (rotarod) [4]: improved motor deficit

— patent publication US20260265298A1, “PEPTIDE SUBSTRATES AND INHIBITORS OF CATHEPSIN B” (The Regents of the University of California, priority 2023, published 2026)
